# Experimental data as given in US20210393539A1, “FERRITIN NANOPARTICLES COMPRISING A CHEMOTHERAPEUTIC AGENT” (INTHENA S.R.L., priority 2018, published 2021).
# Assays:
# patient-derived PBMC = test system: patient-derived PBMC
# Text: FIG. 1: DOX effects on proliferation potential of PBMC from patients under neoadjuvant chemotherapy.
# A. Flow cytometry of DOX internalization profile in PBMC isolated from a representative patient before and after DOX parenteral infusion.
# B. Quantification of Mean Fluorescence Intensity (MFI) in PBMC isolated from patients. The profiles represent the values of DOX fluorescence in each patient before and after chemotherapy. The histogram reports the mean DOX fluorescence value between all the samples analyzed.
# C. Representative image of proliferation analysis of PBMC isolated from BC patients before and after 1 cycle of neoadjuvant chemotherapy with DOX using CFSE assay.
# D. Quantification of proliferative index at different days of culture after Concanavalin A stimulation (ConA). The proliferation index is the ratio between proliferating cells and progenitor cells. The absence of proliferation is represented by a proliferative index of 1.
# FIG. 2: Characterization of lymphocytes subpopulations that internalize DOX. Flow cytometry immunophenotyping of T-Lymphocytes CD8+ e CD4+ to identify populations that internalize DOX (high, int, low). CM: Central Memory, EM: Effector Memory.
# [1] = mouse, in vivo
compound,measurement,setting,value
"COc1cccc2c1C(=O)c1c(O)c3c(c(O)c1C2=O)C[C@@](O)(C(=O)CO)C[C@@H]3O[C@H]1C[C@H](N)[C@H](O)[C@H](C)O1 [DOX, doxorubicin]",DOX uptake by lymphocyte sub-populations,patient-derived PBMC; FIG. 2,naïve T-cells (CD3+CD8+/CD4+CD45RO−) displayed the highest DOX uptake
same,DOX internalization in PBMC,patient-derived PBMC; PBMC isolated after chemotherapy (FIG. 1),promptly internalized DOX
same,proliferation in response to mitogenic stimulations,patient-derived PBMC; after versus before chemotherapy (FIG. 1),dramatic proliferative impairment
same,cardiomyocyte cross-section area,[1],increase in cardiomyocyte cross-section area
same,mitochondria area and cristae morphology,[1],alteration in mitochondria area and cristae morphology
same,mitochondria number in heart tissue,[1],increase in mitochondria number
same,mitochondrial membrane potential and amount of reduced glutathione,[1],induced alterations
